This note sets out measurements from ChEMBL document CHEMBL1121842, “Preparation and antibacterial activity of delta 1-thienamycin” (1981).

For the experiment, the system named is Staphylococcus aureus. Nature of the experiment: Tested for antibacterial activity against Staphylococcus aureus by disc-diffusion antibacterial assay; Inactive. It is filed as functional, organism-based. A general note: Agar diffusion results depend on both activity and mobility in agar.

Each structure is given as a SMILES string. The source made the active and inactive calls. No cut-off for these calls is given here.

As to `C[C@@H](O)[C@H]1C(=O)N2[C@@H](C(=O)O)C(SCCN)=C[C@H]12`, the inhibition entry was “inactive”.
